From ChEMBL document CHEMBL3991601, “The target landscape of clinical kinase drugs” (Science, 2017)
The source made the active and inactive calls.

Experiments:
[1] = target: T1, STE20-related kinase adapter protein alpha (Homo sapiens, UniProt Q7RTN6)
T1 sequence (Q7RTN6 whole entry): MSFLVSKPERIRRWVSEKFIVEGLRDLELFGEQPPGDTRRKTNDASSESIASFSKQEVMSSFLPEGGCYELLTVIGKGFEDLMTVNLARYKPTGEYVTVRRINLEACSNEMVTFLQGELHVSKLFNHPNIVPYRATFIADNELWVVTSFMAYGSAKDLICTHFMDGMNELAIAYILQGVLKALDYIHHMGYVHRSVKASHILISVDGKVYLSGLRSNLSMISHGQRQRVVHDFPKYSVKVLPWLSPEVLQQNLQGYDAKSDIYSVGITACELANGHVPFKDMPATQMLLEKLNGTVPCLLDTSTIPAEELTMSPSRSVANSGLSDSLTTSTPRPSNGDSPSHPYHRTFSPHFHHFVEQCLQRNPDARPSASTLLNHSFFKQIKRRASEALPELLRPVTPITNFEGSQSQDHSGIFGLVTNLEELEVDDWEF

[2] = target: T2, Glycogen phosphorylase, liver form (Homo sapiens, UniProt P06737); type: subcellular, K-562, COLO 205, SK-N-BE(2) and MV-4-11, Cell lysate; conditions: read-out: Kd apparent
T2 sequence (P06737 whole entry): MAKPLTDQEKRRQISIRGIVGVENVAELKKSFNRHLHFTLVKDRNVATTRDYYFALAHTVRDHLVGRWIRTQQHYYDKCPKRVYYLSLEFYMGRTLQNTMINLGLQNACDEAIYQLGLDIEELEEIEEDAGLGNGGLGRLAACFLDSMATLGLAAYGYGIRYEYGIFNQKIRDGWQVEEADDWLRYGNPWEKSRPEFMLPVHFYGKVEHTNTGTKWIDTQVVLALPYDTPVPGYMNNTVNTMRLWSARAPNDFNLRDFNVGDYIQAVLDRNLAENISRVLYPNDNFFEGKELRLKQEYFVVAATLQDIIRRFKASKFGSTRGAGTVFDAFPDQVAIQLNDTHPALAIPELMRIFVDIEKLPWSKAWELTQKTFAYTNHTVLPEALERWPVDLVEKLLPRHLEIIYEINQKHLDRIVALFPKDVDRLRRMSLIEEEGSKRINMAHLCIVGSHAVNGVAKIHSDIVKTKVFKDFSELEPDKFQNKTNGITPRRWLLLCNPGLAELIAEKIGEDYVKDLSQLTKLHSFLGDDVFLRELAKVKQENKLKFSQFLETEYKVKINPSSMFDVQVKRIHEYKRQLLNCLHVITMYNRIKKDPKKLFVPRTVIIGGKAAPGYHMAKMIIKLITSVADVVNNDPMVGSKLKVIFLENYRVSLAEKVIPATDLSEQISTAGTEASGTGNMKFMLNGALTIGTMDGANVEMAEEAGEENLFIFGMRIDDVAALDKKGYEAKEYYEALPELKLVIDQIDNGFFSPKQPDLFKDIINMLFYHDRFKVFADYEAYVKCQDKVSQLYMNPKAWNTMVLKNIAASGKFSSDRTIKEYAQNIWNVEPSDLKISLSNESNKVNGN

[3] = target: Cyclin-dependent kinase 5 (Homo sapiens, UniProt Q00535)
[4] = target: DnaJ homolog subfamily A member 1 (Homo sapiens, UniProt P31689)
[5] = target: T3, Cyclin-G-associated kinase (Homo sapiens, UniProt O14976)
T3 sequence (O14976 whole entry): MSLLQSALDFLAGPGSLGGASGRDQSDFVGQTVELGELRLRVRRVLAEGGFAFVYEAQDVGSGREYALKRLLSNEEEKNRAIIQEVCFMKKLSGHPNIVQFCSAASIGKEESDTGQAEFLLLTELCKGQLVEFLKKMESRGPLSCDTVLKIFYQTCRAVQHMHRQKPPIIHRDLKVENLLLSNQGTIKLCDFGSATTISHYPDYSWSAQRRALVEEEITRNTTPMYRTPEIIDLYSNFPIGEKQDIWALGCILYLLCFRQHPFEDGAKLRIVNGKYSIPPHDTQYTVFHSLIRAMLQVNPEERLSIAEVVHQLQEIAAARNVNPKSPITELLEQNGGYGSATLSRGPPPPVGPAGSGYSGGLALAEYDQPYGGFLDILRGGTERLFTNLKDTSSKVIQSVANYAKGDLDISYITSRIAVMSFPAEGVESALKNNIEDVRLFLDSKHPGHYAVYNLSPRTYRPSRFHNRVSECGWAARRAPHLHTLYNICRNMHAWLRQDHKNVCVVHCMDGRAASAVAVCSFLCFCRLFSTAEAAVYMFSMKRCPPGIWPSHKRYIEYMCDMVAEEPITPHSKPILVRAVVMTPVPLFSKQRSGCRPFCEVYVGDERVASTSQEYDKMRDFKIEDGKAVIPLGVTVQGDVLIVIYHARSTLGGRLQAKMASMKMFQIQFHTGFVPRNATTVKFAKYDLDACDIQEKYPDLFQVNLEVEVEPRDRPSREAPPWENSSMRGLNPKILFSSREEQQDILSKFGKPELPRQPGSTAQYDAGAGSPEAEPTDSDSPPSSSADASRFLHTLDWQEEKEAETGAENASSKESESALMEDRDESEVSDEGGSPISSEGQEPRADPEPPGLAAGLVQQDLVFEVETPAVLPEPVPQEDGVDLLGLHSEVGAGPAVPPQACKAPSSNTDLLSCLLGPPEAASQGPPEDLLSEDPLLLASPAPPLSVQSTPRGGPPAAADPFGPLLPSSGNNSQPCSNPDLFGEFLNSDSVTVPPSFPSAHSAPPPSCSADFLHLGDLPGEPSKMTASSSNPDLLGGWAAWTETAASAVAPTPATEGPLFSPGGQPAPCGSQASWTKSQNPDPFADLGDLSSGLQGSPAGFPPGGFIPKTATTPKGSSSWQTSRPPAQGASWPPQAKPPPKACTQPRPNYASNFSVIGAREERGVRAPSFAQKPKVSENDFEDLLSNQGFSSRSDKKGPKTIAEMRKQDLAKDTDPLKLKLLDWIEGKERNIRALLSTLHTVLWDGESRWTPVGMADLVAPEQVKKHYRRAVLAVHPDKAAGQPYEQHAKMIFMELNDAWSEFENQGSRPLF
Also: in the data inactive means no Kd found up to 30 µM.

DnaJ homolog subfamily A member 1, sequence (P31689 whole entry): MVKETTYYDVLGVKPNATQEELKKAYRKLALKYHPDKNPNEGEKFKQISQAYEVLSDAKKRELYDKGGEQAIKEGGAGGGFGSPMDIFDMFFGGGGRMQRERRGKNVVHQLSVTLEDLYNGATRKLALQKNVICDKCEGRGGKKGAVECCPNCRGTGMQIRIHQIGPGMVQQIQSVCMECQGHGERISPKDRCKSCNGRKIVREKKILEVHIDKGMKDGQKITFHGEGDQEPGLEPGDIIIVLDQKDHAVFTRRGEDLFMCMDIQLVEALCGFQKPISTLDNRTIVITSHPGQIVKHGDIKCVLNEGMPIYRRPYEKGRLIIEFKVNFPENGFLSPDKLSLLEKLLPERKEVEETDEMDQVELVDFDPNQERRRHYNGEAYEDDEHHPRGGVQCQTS
Cyclin-dependent kinase 5, sequence (Q00535 whole entry): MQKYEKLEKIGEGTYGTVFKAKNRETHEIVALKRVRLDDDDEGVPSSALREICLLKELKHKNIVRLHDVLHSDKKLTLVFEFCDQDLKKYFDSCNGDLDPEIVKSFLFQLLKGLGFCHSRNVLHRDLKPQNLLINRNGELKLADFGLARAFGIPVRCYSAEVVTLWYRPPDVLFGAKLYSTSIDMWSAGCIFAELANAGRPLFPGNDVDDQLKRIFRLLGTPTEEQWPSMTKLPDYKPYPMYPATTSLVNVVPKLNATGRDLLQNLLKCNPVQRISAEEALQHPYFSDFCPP

Row | Structure (SMILES) | Kd [1] | Kd [2] | Kd [3] | Kd [4] | Kd [5]
1 | COc1cc2nccc(Oc3ccc(NC(=O)C4(C(=O)Nc5ccc(F)cc5)CC4)cc3)c2cc1OC [CABOZANTINIB] | > 30 µM (inactive) | > 30 µM (inactive) | > 30 µM (inactive) | > 30 µM (inactive) | > 30 µM (inactive)
2 | O=C(Nc1ccc(OC(F)(F)F)cc1)c1sccc1NCc1ccnc2ccccc12 [OSI-930] | > 30 µM (inactive) | > 30 µM (inactive) | > 30 µM (inactive) | > 30 µM (inactive) | > 30 µM (inactive)
3 | Cc1cc(Nc2nc(N[C@@H](C)c3ncc(F)cn3)ncc2Cl)n[nH]1 [AZD-1480] | 0.316 µM | > 30 µM (inactive) | > 30 µM (inactive) | > 30 µM (inactive) | > 30 µM (inactive)
4 | COc1cccc(Nc2ncnn3ccc(CN4CC[C@@H](N)[C@H](O)C4)c23)c1 [BMS-690514] | > 30 µM (inactive) | > 30 µM (inactive) | > 30 µM (inactive) | > 30 µM (inactive) | 0.0003 µM (active)
5 | COc1cc2ncnc3c2cc1OCCCCCN(C)Cc1ccc(Br)cc1N3 [JNJ-26483327] | > 30 µM (inactive) | > 30 µM (inactive) | > 30 µM (inactive) | > 30 µM (inactive) | 0.12 µM (active)
6 | CCc1cc2c(cc1N1CCC(N3CCOCC3)CC1)C(C)(C)c1[nH]c3cc(C#N)ccc3c1C2=O [ALECTINIB] | > 30 µM (inactive) | > 30 µM (inactive) | > 30 µM (inactive) | > 30 µM (inactive) | 0.259 µM (active)
7 | CN(c1ncccc1CNc1nc(Nc2ccc3c(c2)CC(=O)N3)ncc1C(F)(F)F)S(C)(=O)=O [PF-00562271] | > 30 µM (inactive) | > 30 µM (inactive) | – | > 30 µM (inactive) | > 30 µM (inactive)
8 | CNC(=O)c1cccc(-c2ccc3c(N4CCOC[C@@H]4C)nc(N4CCOC[C@@H]4C)nc3n2)c1 [VISTUSERTIB] | > 30 µM (inactive) | > 30 µM (inactive) | > 30 µM (inactive) | > 30 µM (inactive) | > 30 µM (inactive)
9 | C=CCn1c(=O)c2cnc(Nc3ccc(N4CCN(C)CC4)cc3)nc2n1-c1cccc(C(C)(C)O)n1 [ADAVOSERTIB] | > 30 µM (inactive) | > 30 µM (inactive) | – | > 30 µM (inactive) | 0.418 µM (active)
10 | CNC(=O)c1cc(COc2nnc(Nc3ccc(Cl)cc3)c3ccoc23)ccn1 [TELATINIB] | > 30 µM (inactive) | > 30 µM (inactive) | > 30 µM (inactive) | > 30 µM (inactive) | > 30 µM (inactive)
11 | COc1cc2c(Oc3ccc4[nH]c(C)cc4c3F)ncnc2cc1OCCCN1CCCC1 [CEDIRANIB] | > 30 µM (inactive) | > 30 µM (inactive) | – | > 30 µM (inactive) | –
12 | Cn1c(=O)c(F)c(Nc2ccc(I)cc2F)c2c(=O)n(C[C@@H](O)CO)cnc21 [TAK-733] | > 30 µM (inactive) | > 30 µM (inactive) | > 30 µM (inactive) | > 30 µM (inactive) | > 30 µM (inactive)
13 | CC[C@@](C)(Nc1ccnc(-c2c[nH]c3ncccc23)n1)C(=O)NCC(F)(F)F [DECERNOTINIB] | > 30 µM (inactive) | > 30 µM (inactive) | > 30 µM (inactive) | > 30 µM (inactive) | > 30 µM (inactive)
14 | N#CCNC(=O)c1ccc(-c2ccnc(Nc3ccc(N4CCOCC4)cc3)n2)cc1 [MOMELOTINIB] | – | > 30 µM (inactive) | > 30 µM (inactive) | > 30 µM (inactive) | 0.822 µM (active)
15 | CC1(C)CNc2cc(NC(=O)c3cccnc3NCc3ccncc3)ccc21 [MOTESANIB] | > 30 µM (inactive) | > 30 µM (inactive) | – | > 30 µM (inactive) | –
16 | CCOc1ccn(-c2ccc(F)cc2)c(=O)c1C(=O)Nc1ccc(Oc2ccnc(N)c2Cl)c(F)c1 [BMS-777607] | – | > 30 µM (inactive) | > 30 µM (inactive) | > 30 µM (inactive) | > 30 µM (inactive)
17 | CN(C)C/C=C/C(=O)Nc1cc2c(Nc3ccc(F)c(Cl)c3)ncnc2cc1O[C@H]1CCOC1 [AFATINIB] | > 30 µM (inactive) | > 30 µM (inactive) | – | > 30 µM (inactive) | –
18 | Cn1cnc2c(F)c(Nc3ccc(Br)cc3Cl)c(C(=O)NOCCO)cc21 [SELUMETINIB] | > 30 µM (inactive) | > 30 µM (inactive) | – | > 30 µM (inactive) | –
19 | Cn1c(=O)n(-c2ccc(C(C)(C)C#N)cc2)c2c3cc(-c4cnc5ccccc5c4)ccc3ncc21 [DACTOLISIB] | > 30 µM (inactive) | > 30 µM (inactive) | – | > 30 µM (inactive) | > 30 µM (inactive)
20 | COc1cc2c(N3CCN(C(=O)Nc4ccc(OC(C)C)cc4)CC3)ncnc2cc1OCCCN1CCCCC1 [TANDUTINIB] | > 30 µM (inactive) | > 30 µM (inactive) | – | > 30 µM (inactive) | –
21 | O=S(=O)(c1cccc2cnccc12)N1CCCNCC1 [FASUDIL] | > 30 µM (inactive) | > 30 µM (inactive) | – | > 30 µM (inactive) | > 30 µM (inactive)
22 | CCN(CCCOc1ccc2c(Nc3cc(CC(=O)Nc4cccc(F)c4)n[nH]3)ncnc2c1)CCOP(=O)(O)O [BARASERTIB] | > 30 µM (inactive) | > 30 µM (inactive) | – | > 30 µM (inactive) | > 30 µM (inactive)
23 | CCN1CCN(Cc2ccc(Nc3ncc(F)c(-c4cc(F)c5nc(C)n(C(C)C)c5c4)n3)nc2)CC1 [ABEMACICLIB] | > 30 µM (inactive) | > 30 µM (inactive) | – | > 30 µM (inactive) | 2.19 µM (active)
24 | CC1(COc2ccc3c(c2)ncn3-c2ccc3cccc(N4CCC(N)CC4)c3n2)COC1 [CRENOLANIB] | > 30 µM (inactive) | > 30 µM (inactive) | – | > 30 µM (inactive) | 2.41 µM (active)
25 | C[C@@]1(C(=O)Nc2ccc(F)nc2)CCCN1c1nc(Nc2cc(C3CC3)n[nH]2)c2cccn2n1 [BMS-754807] | > 30 µM (inactive) | > 30 µM (inactive) | – | > 30 µM (inactive) | –
26 | C[C@]1(O)C[C@@H](c2nc(-c3ccc4ccc(-c5ccccc5)nc4c3)c3c(N)nccn32)C1 [LINSITINIB] | > 30 µM (inactive) | > 30 µM (inactive) | – | > 30 µM (inactive) | > 30 µM (inactive)
